This is an account of results in US9908886B2 (Agency for Science, Technology and Research, priority 2012, dated 2018).

Usually pIC50 stands for −log10 of the IC50, conventionally taken in molar units.

pIC50: −log10 of the molar value. Entries after “also recorded” stand apart in the source; their conditions may differ. Some results are limits rather than exact numbers.

Assay [1] concerns K562 cells over-expressing eIF4E. In words: Cell cytotoxicity assay (CellTiter-Glo). In kind it is cell-based. To be noted: 48 hours extended to 6 days. The protocol:
(§1) Cancer cell lines, MV-4-11 (leukemia), P116.c139 (acute T cell leukemia) and D1.1 (acute T cell leukemia), were purchased from ATCC and cultured according to supplier's recommendations. K562 cells (myelogenous leukemia) over-expressing eIF4E, were also used for the cytotoxicity assay. For cells treated for 48 hours, 5000 cells were seeded in 70 μl of growth medium in black, flat-bottom 96-well plate. For cells treated for six days, 1000 cells were seeded in 70 μl of growth medium in black, flat-bottom 96-well plate. […] 50 μl of the diluted compounds was added to the cells and incubated at 37° C. in 5% CO2. After 48 hours or six days treatment, cell viability was determined by CellTiter-Glo Luminescent Cell Viability Assay (Promega, Madison, Wis.). 120 μl of the reagent was added to the cells and luminescence was measured using Tecan Safire Reader. Data was analysed with Graphpad Prism software and the figures represented indicate the half maximal inhibitory concentration (IC50). Error bars denote standard deviation (SD).

In another assay the test system is D1.1 cells. In words: Cell cytotoxicity assay (CellTiter-Glo). The note with it: 48 hours extended to 6 days. In kind it is cell-based. The protocol: as §1
(In general: Cellular ATP, detected with luciferase, serves as a proxy for viable cell number.)

The test system of a further assay is P116.c139 cells. Nature of the assay: Cell cytotoxicity assay (CellTiter-Glo). The note with it: 48 hours extended to 6 days. It counts as cell-based. The protocol: as §1
The target in a further assay is MNK2 (Homo sapiens (Human), UniProt Q9HBH9). Nature of the assay: In vitro MNK kinase assay (Caliper LabChip mobility shift). In kind it is biochemical. To be noted: enzymatic, 250 μM ATP; read-out: IC50 Mnk2.
The target of a further assay is MNK1 (Homo sapiens, UniProt Q9BUB5). The assay is described as above. In kind it is biochemical. The note with it: enzymatic, 1.2 mM ATP; read-out: IC50 Mnk1.
Assay [2] relates to eIF4E phosphorylation in BC GMPs. To be noted: background section; cited from earlier work.
The subject of assay [3] is CD34+ BC-CML primary cells. The note with it: background section; including cells carrying T315I mutation; cited from earlier work.
Assay [4] deals with eIF4E Ser209 phosphorylation in Hela cells. In words: MNK cell-based assay, AlphaScreen SureFire. To be noted: 2 hours. The text has this: It has been reported that Ser209 of eIF4E is solely phosphorylated by the MNK enzymes. The ability of compounds to inhibit this process in Hela cells was investigated using the AlphaScreen SureFire® assay platform from Perkin Elmer (Waltham, Mass.). eIF4E phosphorylated on Ser209 is recognized by two antibodies, the first which is fused to a streptavidin coated donor bead binds to an epitope away from Ser209, the second which is fused to a protein A conjugated acceptor bead binds to phosphorylated Ser209. The phosphorylation of eIF4E on Ser209 brings the two antibodies into close proximity and when excited by a laser a singlet oxygen is released by the donor bead which excites the acceptor bead resulting in the emission of light. This enables the monitoring of eIF4E Ser209 phosphorylation and its inhibition in a cellular context.
Hela cells were seeded into microtitre plates (30,000 cells per well) in 100 μl of culture medium and incubated at 37° C. for 24 hours. The media was then removed by aspiration and the cells resuspended in 50 μl of serum free medium containing the test compound and incubated at 37° C. for 2 hours. The culture medium was again removed by aspiration and the cells resuspended in lysis buffer (provided in Perkin Elmer SureFire® Assay Kit). After agitation at 350 rpm for 20 minutes at 22° C., 4 μl was transferred to a 384 well OptiPlate™ (Perkin Elmer, Waltham, Mass.). To each well was added 5 μl of acceptor mix; the plate was sealed and agitated gently at 22° C. for 2 hours. Then, in subdued light, 2 μl of donor mix was added to each well, the plate was sealed, wrapped in aluminum foil and agitated gently at 22° C. for 2 hours. Emission was measured using the EnVision® plate reader (Perkin Elmer, Waltham, Mass.).
Inhibition constants (IC50) were determined by plotting AlphaScreen signal versus log compound concentration and fitting with a non-linear regression algorithm using GraphPad Prism (GraphPad Software Inc.).
(In general: Alpha assays give light when donor and acceptor beads are brought close together.)

In assay [5] the test system is BCR-ABL activity (phosphorylation of CrKl) in K562 cells. Nature of the assay: Western blot of CrKl phosphorylation in K562 cells. It counts as cell-based. The protocol:
(§2) K562 cell line was obtained from the ATCC, and grown in RPMI supplemented with 10% FCS, L-glutamine, and penicillin/streptomycin.
(§3) Exponentially growing cells were plated at 2×10^5 cells/ml, and whole cell lysate processed for western blot analysis using antibodies recognizing eIF4E, phospho-eIF4E (Cell signaling Technology),
(A western blot detects proteins with antibodies after separation by electrophoresis.)

The test system of assay [6] is eIF4E phosphorylation in K562 cells. In words: Western blot of eIF4E phosphorylation in BC-CML cell line. It counts as cell-based. The note with it: various concentrations, 24 h. The protocol:
as §2, §3

Assay [7] relates to nuclear beta-catenin in BC-CML cells. In words: Immunofluorescence analysis of nuclear active beta-catenin. It counts as cell-based, human. The text has this:
(§4) Cord Blood (CB) samples were purchased from the Singapore Cord Blood bank. CML samples were the Singapore General Hospital after signed informed consent under local IRB-approved procedures. MNCs were obtained using Ficoll separation, and CD34^+ cells selected by immunomagnetic beads (Miltenyi Biotech, Germany).
Cells (1×10^5) were cytospun onto glass slides, fixed with 4% paraformaldehye, and stained with mouse monoclonal antibodies against activated β-catenin (clone 8E7, Millipore, UK), or rabbit monoclonal antibodies against phospho-eIF4E S209 (EP2151Y, Abeam, UK). Slides were then stained with either PE-conjugated anti-mouse or FITC-conjugated anti-rabbit antibodies. Images were obtained with the use of a fluorescence microscope (Olympus IX71S1F3) at 40× magnification.

The subject of assay [8] is CD34+ BC-CML primary cells. Nature of the assay: Serial replating assay. It counts as cell-based, human. To be noted: for serial replating efficiency of CD34+ BC cells: increasing dose, 48 hr treatment, compared to DMSO.
Description: as §4
CD34-enriched CB and BC cells were thawed and allowed to recover overnight in serum-free StemPro media (Invitrogen, Carlsbad, Calif.), supplemented with human growth factors and 1× nutrient supplement (Invitrogen). Cells were then subjected to drug treatment for 48 hr, harvested, washed, and seeded in methycellulose (H4434, […] Technologies, Canada). Colonies were enumerated after 2 weeks, individually picked, and replated in fresh methylcellulose in a 96-well format, and counted at 2 weeks. Three rounds of serial replating (representing>8 weeks in culture) were performed.

The test system of assay [9] is patient-derived BC cells in NSG mice. The note with it: in vivo treatment for three consecutive weeks; CGP57380 40 mg/kg/d, dasatinib 5 mg/kg/d; background section; cited from earlier work.

MNK2, sequence (Q9HBH9 84-388): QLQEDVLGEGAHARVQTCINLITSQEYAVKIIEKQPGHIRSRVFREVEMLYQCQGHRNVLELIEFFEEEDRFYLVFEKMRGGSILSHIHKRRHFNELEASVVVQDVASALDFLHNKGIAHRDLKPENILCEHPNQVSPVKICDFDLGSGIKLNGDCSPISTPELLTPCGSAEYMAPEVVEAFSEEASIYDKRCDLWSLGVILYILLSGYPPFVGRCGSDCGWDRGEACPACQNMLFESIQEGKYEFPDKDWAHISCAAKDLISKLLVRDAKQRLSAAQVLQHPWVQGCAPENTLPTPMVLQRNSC

`CN1CCN(C2CCN(C(=O)c3ccc(-c4ccc5ncc(-c6ccc(C#N)cc6)n5c4)cc3)CC2)CC1` [Example 133, 4-(6-(4-(4(4-methylpiperazin-1-yl)piperidine-1-carbonyl)phenyl)imidazo[1,2-a]pyridin-3-yl)benzonitrile]: the “change of IC50 with treatment duration, K562 cells over-expressing eIF4E” value (“change … K562 cells over-expressing eIF4E” below) in assay [1] is recorded as “not influenced by the treatment duration”. In the assay on D1.1 cells, the “change of IC50 with treatment duration, D1.1 cells” value is reported as “not influenced by the treatment duration”. In the assay with P116.c139 cells, the “change of IC50 with treatment duration, P116.c139 cells” value was “decrease the IC50 by more than half-fold”. In addition, the negative-log IC50 (pIC50) at MNK2 and at MNK1 was above 7.00 in each case.
In the case of `Cc1ccc(NC(=O)c2ccc(CN3CCN(C)CC3)cc2)cc1Nc1nccc(-c2cccnc2)n1` [imatinib], the “eIF4E phosphorylation in BC GMPs” value in assay [2] was “not”. Moreover, the “ability of CD34+ BC cells to serially replate for more than 8 weeks in methylcellulose” value in [3] was “only partially impaired”.
`CN1CCN(C(=O)c2ccc(-c3ccc4ncc(-c5ccc(C#N)cc5)n4c3)c(O)c2)CC1` [Example 144, 4-(6-(2-hydroxy-4-(4-methylpiperazine-1-carbonyl)phenyl)imidazo[1,2-a]pyridin-3-yl)benzonitrile]: the pIC50 on MNK2 is above 7.00; at MNK1 it was above 7.00; in assay [4] (Homo sapiens), above 6.00.
Turning to `CN1CCN(C(=O)c2ccc(-c3ccn4ncc(-c5ccc(C#N)cc5)c4n3)cc2)CC1` [Example 176, 4-(5-(4-(4-methylpiperazine-1-carbonyl)phenyl)pyrazolo[1,5-a]pyrimidin-3-yl)benzonitrile], the “change … K562 cells over-expressing eIF4E” value in assay [1] is listed as “reduced by more than half”. The negative-log IC50 (pIC50) at MNK2 and on MNK1 was above 7.00 each time. Also, the “BCR-ABL activity (phosphorylation of CrKl)” value in [5] is “decrease in BCR-ABL activity”. Also, the eIF4E phosphorylation entry in assay [6] is given as “decrease in eIF4E phosphorylation; also recorded: prevent eIF4E phosphorylation”. In addition, the nuclear beta-catenin accumulation result in [7] is listed as “decrease in nuclear beta-catenin accumulation”.
In the case of `CN1CCN(C(=O)c2ccc(-c3cn4c(-c5ccc(O)cc5)cnc4cn3)cc2)CC1` [Example 1, (4-(3-(4-hydroxyphenyl)imidazo[1,2-a]pyrazin-6-yl)phenyl)(4-methylpiperazin-1-yl)methanone], the pIC50 on MNK2 and on MNK1 was above 7.00 each time. Moreover, the eIF4E phosphorylation entry in [6] is “prevent eIF4E phosphorylation”. For the same molecule, the “serial replating efficiency of CD34+ BC cells” value in [8] is given as “retards the serial replating efficiency”.
As for `N#Cc1ccc(-c2cnc3ccc(-c4ccc(C(=O)N5CCN(c6ccncc6)CC5)cc4)cn23)cc1` [Example 125, 4-(6-(4-(4-(pyridin-4-1)piperazine-1-carbonyl)phenyl)imidazo[1,2-a]pyridin-3-yl)benzonitrile], the pIC50 in assay [4] is above 6.00.
“N-(5-(3-(4-cyanophenyl)imidazo[1,2-b]pyridazin-6-yl)-2-morpholine-4-carbonyl)phenyl)acetamide [Example 80]” gave a pIC50 in [4] above 6.00.
On to `O=C(c1ccc(-c2cn3c(-c4ccc(O)cc4)cnc3cn2)cc1)N1CCOCC1` [Example 2, (4-(3-(4-hydroxyphenyl)imidazo[1,2-a]pyrazin-6-yl)phenyl)(morpholino)methanone], for which the pIC50 at MNK2 and on MNK1 was above 6.00 in each case. Besides, in assay [6], the eIF4E phosphorylation entry is listed as “prevent eIF4E phosphorylation”. In addition, the “ability of BC cells to serial replate” value in [8] (at 10.0 μM and 20.0) was “potently impaired the ability of BC cells to serial replate”. Further, the “serial replating efficiency of CD34+ BC cells” value in [8] is reported as “retards serial replating efficiency”.
For the molecule `Cc1nc(Nc2ncc(C(=O)Nc3c(C)cccc3Cl)s2)cc(N2CCN(CCO)CC2)n1` [dasatinib], in assay [2], the “eIF4E phosphorylation in BC GMPs” value is given as “not”. Further, in [3], the “ability of CD34+ BC cells to serially replate for more than 8 weeks in methylcellulose” value was “only partially impaired”. In assay [9], the “serial transplantation of BC cells in NSG mice at 16 weeks” value was “not”.
In the case of “N-(1-(4-(3-(4-chlorophenyl)imidazo[1,2-a]pyrazin-6-yl)benzoyl)piperidin-4-yl)-2,2,2-acetamide [Example 49]”, in [4], the pIC50 was above 6.00.
With `CN1CCN(C(=O)c2ccc(-c3cn4c(-c5ccc(C#N)cc5)cnc4cn3)cc2)CC1` [Example 6, 4-(6-(4-(4-methylpinerazine-1-carbonyl)phenyl)imidazo[1,2-a]pyrazin-3-yl)benzonitrile], in [6], the eIF4E phosphorylation entry is recorded as “prevent eIF4E phosphorylation”.
Turning to `CN1CCN(C(=O)c2ccc(-c3ccc4ncc(-c5ccc(C#N)cc5)n4c3)cc2O)CC1` [Example 143, 4-(6-(3-hydroxy-4-(4-methylpiperazine-1-carbonyl)phenyl)imidazo[1,2-a]pyridin-3-yl)benzonitrile], the values for the pIC50 (on MNK2; at MNK1; in assay [4] (Homo sapiens)) were above 7.00, above 7.00 and above 6.00, respectively.
In the case of `N#Cc1ccc(-c2cnc3ccc(-c4ccc(C(=O)N5CCOCC5)cc4)nn23)cc1` [Example 62, 4-(6-(4-(morpholine-4-carbonyl)phenyl)imidazo[1,2-b]pyridazin-3-yl)benzonitrile], the “change … K562 cells over-expressing eIF4E” value in assay [1] was “reduced by more than half”. Also, the pIC50 at MNK2 and at MNK1 was above 7.00 in each case. Further, the “BCR-ABL activity (phosphorylation of CrKl)” value in assay [5] is given as “decrease in BCR-ABL activity”. Besides, in [6], the eIF4E phosphorylation entry is on record as “decrease in eIF4E phosphorylation; also recorded: prevent eIF4E phosphorylation”. Moreover, in assay [7], the nuclear beta-catenin accumulation result was “decrease in nuclear beta-catenin accumulation”.
